Assay results reported in patent US11407761B2, “Derivative of β-apopicropodophyllin and method of preparing thereof” (J&C Sciences, priority 2020, dated 2022).
One block for each compound: values may come before it.

Tests used:
[1] = test system: H1975; test: PrestoBlue cell viability, H1975; format: cell-based; settings: Homo sapiens, NCI-H1975; lung, H1975, 48 h
Description: (§1) Human lung cancer cells A549, NCl-H460 and 7 cancer cell lines were cultured in RPMI 1640 medium containing 10% FBS (Gibco, USA) and 1% penicillin-streptomycin. Human colon cancer cell HCT-116 cell line was cultured in McCoy's 5A medium containing 10% FBS (Gibco, USA) and 1% penicillin-streptomycin. Human leukemia cancer cell HL-60 cell line was cultured in IMDM medium containing 20% FBS (Gibco, USA) and 1% penicillin-streptomycin. Human normal cell line WI-38 was cultured in MEM containing 10% FBS (Gibco, USA), 1% penicillin-streptomycin, and 1% Non-Essential Amin Acids solution. Human normal cell line HUVEC cultured in Human Endothelial Growth Medium containing. All the cells were cultured in sterilized cell culture plastic dishes or 96-well plastic plates in a humidified incubator filled with 95% air and 5% CO2 gas and maintained at a temperature of 37° C.
(§2) First, the cells are seeded in a 96-well plate (Nunc, 165305) at a volume of 100 μl, and then cultured in an incubator overnight to confirm that they grow well on the plate. Depending on the concentration of the drugs, each well is treated with 100 μl of the compound and then incubated to allow cells and compounds to react for 48 hrs. PrestoBlue Cell Viability Reagent (Invitrogen, A13262) was added to the compound-treated well, and then the plates were incubated in a humidified incubator at 37° C. for 30 mins. Each well was measured at a fluorescence detected with the wavelength of an excitation of 560 nm and an emission of 590 nm using by microplate reader (BioTek, Synergy H1). The IC50 value is calculated by using the Gen5 software.

[2] = test system: HL-60; test: PrestoBlue cell viability, HL-60; format: cell-based, Human; settings: HL-60, 48 h, leukemia
Description: as §1, §2

[3] = test system: HCT-116; test: PrestoBlue cell viability, HCT-116; format: cell-based; settings: Homo sapiens; colon, HCF116 (HCT-116), 48 h
Description: as §1, §2

[4] = test system: MCF-7; test: PrestoBlue cell viability, MCF-7; format: cell-based; settings: Homo sapiens, MCF7; breast, MCF-7, 48 h
Description: as §1, §2

[5] = test system: H146; test: PrestoBlue cell viability, H146; format: cell-based; settings: Homo sapiens, NCI-H146; lung, H146, 48 h
Description: as §1, §2

[6] = test system: H1299; test: PrestoBlue cell viability, H1299; format: cell-based; settings: Homo sapiens, NCI-H1299; lung, H1299, 48 h
Description: as §1, §2

[7] = test system: H1650; test: PrestoBlue cell viability, H1650; format: cell-based; settings: Homo sapiens, NCI-H1650; lung, H1650, 48 h
Description: as §1, §2

[8] = test system: MDA-MB-231; test: PrestoBlue cell viability, MDA-MB-231; format: cell-based; settings: Homo sapiens; breast, MDA-MB-231, 48 h
Description: as §1, §2

[9] = test system: CFPAC-1; test: PrestoBlue cell viability, CFPAC-1; format: cell-based; settings: Homo sapiens; pancreas, CFPAC-1, 48 h
Description: as §1, §2

[10] = test system: BxPC-3; test: PrestoBlue cell viability, BxPC-3; format: cell-based; settings: Homo sapiens; pancreas, BxPC-3, 48 h
Description: as §1, §2

[11] = test system: H460; test: PrestoBlue cell viability, H460; format: cell-based, Human; settings: lung
Description: as §1, §2

[12] = test system: HCC827; test: PrestoBlue cell viability, HCC827; format: cell-based; settings: Homo sapiens; lung, HCC827, 48 h
Description: as §1, §2

[13] = test system: HUVEC; test: PrestoBlue toxicity test, normal cells HUVEC; format: cell-based, Human; settings: 48 h
Description: as §1, §2

[14] = test system: WI-38; test: PrestoBlue toxicity test, normal cells WI-38; format: cell-based, Human; settings: WI-38, 48 h
Description: as §1, §2

[15] = test system: A549; test: PrestoBlue cell viability, A549; format: cell-based, Human
Description: as §1, §2

[16] = test system: K562; test: PrestoBlue cell viability, K562; format: cell-based, Human; settings: for IC50: Homo sapiens, leukemia, K562, 48 h
Description: as §1, §2

[17] = test system: WI-26; test: PrestoBlue toxicity test, normal cells WI-26; format: cell-based, Human; settings: WI-26, 48 h
[18] = Homo sapiens, NCI-H460, H460, 48 h

- IC50 [1]: > 50 µM
- IC50 ([2]; Homo sapiens): 2.43 µM
- IC50 [3]: 7.29 µM
- IC50 [4]: > 50 µM
- IC50 [5]: > 50 µM
- IC50 [6]: 40.1 µM
- IC50 [7]: > 50 µM
- IC50 [8]: > 50 µM
- IC50 [10]: > 50 µM
- IC50 [11, 18]: 0.971 µM
- IC50 [12]: > 50 µM
- IC50 ([15]; Homo sapiens; lung, A549, 48 h): 2.16 µM
Compound: COc1cc([C@@H]2c3cc4c(cc3[C@@H](O[C@@H]3O[C@@H]5CO[C@@H](C)O[C@H]5[C@H](O)[C@H]3O)[C@H]3COC(=O)[C@H]23)OCO4)cc(OC)c1O [Etoposide, reference compound]
- IC50 [9]: 42 µM
- IC50 ([13]; Homo sapiens): > 50 µM
- IC50 ([14]; Homo sapiens): > 50 µM

Compound: COc1cc([C@@H]2C3=C(COC3=O)Cc3cc4c(cc32)OCO4)cc(OC)c1OC(C)=O [example 1, Acetic acid (5S)-2,6-dimethoxy-4-(6-oxo-5,6,8,9-tetrahydrofuro[3′,4′:6,7]naphtho[2,3-d][1,3]dioxol-5-yl)-phenyl ester]
- IC50 [1]: > 50 µM
- IC50 [2]: 0.03 µM
- IC50 [3]: 0.129 µM
- IC50 [4]: > 50 µM
- IC50 [5]: > 50 µM
- IC50 [6]: > 50 µM
- IC50 [7]: > 50 µM
- IC50 [8]: > 50 µM
- IC50 [9]: > 50 µM
- IC50 [10]: > 50 µM
- IC50 [16]: > 50 µM
- IC50 ([11]; Homo sapiens, NCI-H460, 48 h): 0.06 µM
- IC50 [12]: > 50 µM
- IC50 [13]: > 50 µM
- IC50 ([13]; Homo sapiens): ≥ 50 µM
- IC50 ([14]; Homo sapiens): ≥ 50 µM
- IC50 [14]: > 50 µM
- IC50 ([15]; Homo sapiens, A549, 48 h, lung): 0.065 µM
- IC50 ([17]; Homo sapiens, 48 h): ≥ 50 µM
- IC50 [17]: > 50 µM

Compound: COc1cc([C@@H]2C3=C(COC3=O)Cc3cc4c(cc32)OCO4)cc(OC)c1OC(=O)c1ccccc1 [example 2, Benzoic acid (5S)-2,6-dimethoxy-4-(6-oxo-5,6,8,9-tetrahydrofuro[3′,4′:6,7]naphtho[2,3-d][1,3]dioxol-5-yl)-phenyl ester]
- IC50 [1]: > 50 µM
- IC50 [2]: 0.25 µM
- IC50 [3]: 1.39 µM
- IC50 [4]: > 50 µM
- IC50 [5]: > 50 µM
- IC50 [6]: > 50 µM
- IC50 [7]: > 50 µM
- IC50 [8]: > 50 µM
- IC50 [9]: > 50 µM
- IC50 [10]: > 50 µM
- IC50 [16]: > 50 µM
- IC50 ([11]; Homo sapiens, NCI-H460, 48 h): 0.134 µM
- IC50 [12]: > 50 µM
- IC50 [13]: > 50 µM
- IC50 ([13]; Homo sapiens): ≥ 50 µM
- IC50 ([14]; Homo sapiens): ≥ 50 µM
- IC50 [14]: > 50 µM
- IC50 ([15]; Homo sapiens, A549, 48 h, lung): 0.202 µM
- IC50 ([17]; Homo sapiens, 48 h): ≥ 50 µM
- IC50 [17]: > 50 µM

- IC50 [1]: > 50 µM
- IC50 [2]: 0.181 µM
- IC50 [3]: 0.234 µM
- IC50 [4]: > 50 µM
- IC50 [5]: > 50 µM
- IC50 [6]: > 50 µM
- IC50 [7]: > 50 µM
- IC50 [8]: > 50 µM
- IC50 [10]: > 50 µM
- IC50 [16]: > 50 µM
- IC50 [11, 18]: 0.174 µM
- IC50 [12]: > 50 µM
- IC50 ([15]; Homo sapiens; lung, A549, 48 h): 0.127 µM
Compound: COc1cc([C@@H]2C3=C(COC3=O)Cc3cc4c(cc32)OCO4)cc(OC)c1OCc1ccccc1 [example 3, (5S)-5-(4-Benzyloxy-3,5-dimethoxy-phenyl)-5,9-dihydro-8H-furo[3′,4′:6,7]naphtho[2,3-d][1,3]dioxol-6-one]
- IC50 [9]: > 50 µM
- IC50 [13]: > 50 µM
- IC50 ([13]; Homo sapiens): ≥ 50 µM
- IC50 ([14]; Homo sapiens): ≥ 50 µM
- IC50 [14]: > 50 µM
- IC50 ([17]; Homo sapiens, 48 h): ≥ 50 µM
- IC50 [17]: > 50 µM

Compound: COc1cc([C@@H]2C3=C(COC3=O)Cc3cc4c(cc32)OCO4)cc(OC)c1OCC1CCCCC1 [example 4, (5S)-5-(4-Cyclohexylmethoxy-3,5-dimethoxy-phenyl)-5,9-dihydro-8H-furo[3′,4′:6,7]naphtho[2,3-d][1,3]dioxol-6-one]
- IC50 ([2]; Homo sapiens): > 50 µM
- IC50 [3]: 1.57 µM
- IC50 [8]: > 50 µM
- IC50 [16]: 0.398 µM
- effects against the blood cancer cell line K562 (in words) [16]: particularly excellent effects
- IC50 ([11]; Homo sapiens, NCI-H460, 48 h): 0.796 µM
- IC50 [13]: > 50 µM
- IC50 ([13]; Homo sapiens): ≥ 50 µM
- IC50 ([14]; Homo sapiens): ≥ 50 µM
- IC50 [14]: > 50 µM
- IC50 ([15]; Homo sapiens, A549, 48 h, lung): 0.698 µM
- IC50 ([17]; Homo sapiens, 48 h): ≥ 50 µM

Compound: C=CCCOc1c(OC)cc([C@@H]2C3=C(COC3=O)Cc3cc4c(cc32)OCO4)cc1OC [example 5, (5S)-5-(4-But-3-enyloxy-3,5-dimethoxy-phenyl)-5,9-dihydro-8H-furo[3′,4′:6,7]naphtho[2,3-d][1,3]dioxol-6-one]
- IC50 ([2]; Homo sapiens): > 50 µM
- IC50 [3]: > 50 µM
- IC50 [8]: > 50 µM
- IC50 ([11]; Homo sapiens, NCI-H460, 48 h): ≥ 50 µM
- IC50 ([11]; H460, 48 h): > 50 µM
- IC50 [13]: > 50 µM
- IC50 ([13]; Homo sapiens): ≥ 50 µM
- IC50 ([14]; Homo sapiens): ≥ 50 µM
- IC50 [14]: > 50 µM
- IC50 ([15]; Homo sapiens, A549, 48 h, lung): ≥ 50 µM
- IC50 ([15]; lung, A549, 48 h): > 50 µM
- IC50 ([17]; Homo sapiens, 48 h): ≥ 50 µM

Compound: COc1cc([C@@H]2C3=C(COC3=O)Cc3cc4c(cc32)OCO4)cc(OC)c1OCc1ccc(F)cc1 [example 6, (5S)-5-[3,5-Dimethoxy-4-(4-fluorobenzyloxy)-phenyl]-5,9-dihydro-8H-furo[3′,4′:6,7]naphtho[2,3-d][1,3]dioxol-6-one]
- IC50 ([2]; Homo sapiens): > 50 µM
- IC50 [3]: > 50 µM
- IC50 [8]: > 50 µM
- IC50 [16]: 0.247 µM
- effects against the blood cancer cell line K562 (in words) [16]: particularly excellent effects
- IC50 ([11]; Homo sapiens, NCI-H460, 48 h): 0.437 µM
- IC50 [13]: > 50 µM
- IC50 ([13]; Homo sapiens): ≥ 50 µM
- IC50 ([14]; Homo sapiens): ≥ 50 µM
- IC50 [14]: > 50 µM
- IC50 ([15]; Homo sapiens, A549, 48 h, lung): 0.288 µM
- IC50 ([17]; Homo sapiens, 48 h): ≥ 50 µM

Compound: COc1cc([C@@H]2C3=C(COC3=O)Cc3cc4c(cc32)OCO4)cc(OC)c1OCc1ccc(C(F)(F)F)cc1 [example 7, (5S)-5-[3,5-Dimethoxy-4-(4-trifluoromethyl-benzyloxy)-phenyl]-5,9-dihydro-8H-furo[3′,4′:6,7]naphtho[2,3-d][1,3]dioxol-6-one]
- IC50 ([2]; Homo sapiens): > 50 µM
- IC50 [3]: > 50 µM
- IC50 [8]: > 50 µM
- IC50 ([11]; Homo sapiens, NCI-H460, 48 h): ≥ 50 µM
- IC50 ([11]; H460, 48 h): > 50 µM
- IC50 [13]: > 50 µM
- IC50 ([13]; Homo sapiens): ≥ 50 µM
- IC50 ([14]; Homo sapiens): ≥ 50 µM
- IC50 [14]: > 50 µM
- IC50 ([15]; Homo sapiens, A549, 48 h, lung): ≥ 50 µM
- IC50 ([15]; lung, A549, 48 h): > 50 µM
- IC50 ([17]; Homo sapiens, 48 h): ≥ 50 µM

Compound: COc1cc([C@@H]2C3=C(COC3=O)Cc3cc4c(cc32)OCO4)cc(OC)c1OCc1ccc(C)cc1 [example 8, (5S)-5-[3,5-Dimethoxy-4-(4-methyl-benzyloxy)-phenyl]-5,9-dihydro-8H-furo[3′,4′:6,7]naphtho[2,3-d][1,3]dioxol-6-one]
- IC50 ([2]; Homo sapiens): > 50 µM
- IC50 [3]: > 50 µM
- IC50 [8]: > 50 µM
- IC50 ([11]; Homo sapiens, NCI-H460, 48 h): ≥ 50 µM
- IC50 ([11]; H460, 48 h): > 50 µM
- IC50 [13]: > 50 µM
- IC50 ([13]; Homo sapiens): ≥ 50 µM
- IC50 ([14]; Homo sapiens): ≥ 50 µM
- IC50 [14]: > 50 µM
- IC50 ([15]; Homo sapiens, A549, 48 h, lung): ≥ 50 µM
- IC50 ([15]; lung, A549, 48 h): > 50 µM
- IC50 ([17]; Homo sapiens, 48 h): ≥ 50 µM
